ChEMBL document CHEMBL4270542, “Synthesis and study of benzofuran-pyran analogs as BMP-2 targeted osteogenic agents” (Eur J Med Chem, 2018)
Each block holds one compound with its values, some of them ahead of it. Calls of active or inactive are those of the source. The calls are words filed in the database; no cut-off is given here.

Columns and labels:
[1] = tested on: Calvarial osteoblast; experiment: Induction of mineralization in rat calvarial osteoblast at 1 uM supplemented with fresh medium containing compounds every 48 hrs for 21 days by alizarin red-S staining based assay; type: functional, cell-based
[2] = tested on: Calvarial osteoblast; experiment: Cytotoxicity against rat calvarial osteoblast assessed as effect on cell viability at 0.000001 to 100 uM after 48 hrs by MTT assay; type: cell-based
[3] = tested on: Calvarial osteoblast; experiment: Induction of osteoblast differentiation in rat calvarial osteoblast assessed as increase in ALP activity using PNPP as substrate measured after 48 hrs; type: functional, cell-based; conditions: for EC50: Rattus norvegicus, Calvarial osteoblast, 48 h
[4] = tested on: Calvarial osteoblast; experiment: Induction of osteoblast differentiation in rat calvarial osteoblast assessed as increase in BMP2 mRNA expression at 0.01 to 1 uM after 48 hrs by SYBR green dye based qRT-PCR analysis relative to control; type: functional
[5] = tested on: Calvarial osteoblast; experiment: Induction of osteoblast differentiation in rat calvarial osteoblast assessed as increase in BMP2 mRNA expression at 0.1 to 10 nM after 48 hrs by SYBR green dye based qRT-PCR analysis relative to control; type: functional
[6] = tested on: Calvarial osteoblast; experiment: Induction of mineralization in rat calvarial osteoblast at 10 nM supplemented with fresh medium containing compounds every 48 hrs for 21 days by alizarin red-S staining based assay; type: functional, cell-based
[7] = tested on: Rattus norvegicus; experiment: In vivo induction of osteogenesis in rat assessed as increase in OCN mRNA expression at 5 mg/kg, sc administered daily for 5 days by qRT-PCR analysis; type: functional, organism-based
[8] = tested on: Calvarial osteoblast; experiment: Induction of osteoblast differentiation in rat calvarial osteoblast assessed as increase in BMP2 mRNA expression at 1 to 100 pM after 48 hrs by SYBR green dye based qRT-PCR analysis relative to control; type: functional
[9] = tested on: Calvarial osteoblast; experiment: Induction of osteoblast differentiation in rat calvarial osteoblast assessed as increase in COL1 mRNA expression at 1 pM after 48 hrs by SYBR green dye based qRT-PCR analysis; type: functional, cell-based
[10] = tested on: Rattus norvegicus; experiment: In vivo induction of osteogenesis in rat assessed as increase in OCN mRNA expression at 10 mg/kg, sc administered daily for 5 days by qRT-PCR analysis; type: functional, organism-based
[11] = tested on: Rattus norvegicus; experiment: In vivo induction of osteogenesis in rat assessed as increase in BMP2 mRNA expression at 10 mg/kg, sc administered daily for 5 days by qRT-PCR analysis; type: functional, organism-based
[12] = tested on: Rattus norvegicus; experiment: In vivo induction of osteogenesis in rat assessed as increase in COL1 mRNA expression at 2.5 mg/kg, sc administered daily for 5 days by qRT-PCR analysis; type: functional, organism-based
[13] = tested on: Calvarial osteoblast; experiment: Induction of osteoblast differentiation in rat calvarial osteoblast assessed as increase in Runx2 mRNA expression at 1 pM after 48 hrs by SYBR green dye based qRT-PCR analysis relative to control; type: functional
[14] = tested on: Rattus norvegicus; experiment: In vivo induction of osteogenesis in rat assessed as increase in BMP2 mRNA expression at 2.5 mg/kg, sc administered daily for 5 days by qRT-PCR analysis; type: functional, organism-based
[15] = tested on: Calvarial osteoblast; experiment: Induction of mineralization in rat calvarial osteoblast at 1 pM supplemented with fresh medium containing compounds every 48 hrs for 21 days by alizarin red-S staining based assay; type: functional, cell-based
[16] = tested on: Rattus norvegicus; experiment: In vivo induction of osteogenesis in rat assessed as increase in COL1 mRNA expression at 10 mg/kg, sc administered daily for 5 days by qRT-PCR analysis; type: functional, organism-based

EC50 [3]: 7960 nM
Structure (SMILES): CCc1cc(C2C3=C(CC(C)(C)CC3=O)OC3=C2C(=O)CC(C)(C)C3)cc2cc(C(=O)c3ccc(F)cc3)oc12
Activity [1]: Active | Activity [2]: Non-Toxic | concentration of maximal effect [3]: 10 µM | fold change (FC) [4]: 2

EC50 [3]: 7.59 nM
Structure (SMILES): CCc1cc(C2C3=C(CCCC3=O)OC3=C2C(=O)CCC3)cc2cc(C(=O)c3ccc(F)cc3)oc12
fold change (FC) [5]: 2 | Activity [2]: Non-Toxic | concentration of maximal effect [3]: 0.01 µM | Activity [6]: Active

EC50 [3]: 0.000822 nM
Structure (SMILES): Cc1cc(C2C3=C(CCCC3=O)OC3=C2C(=O)CCC3)cc2cc(C(=O)c3ccc(F)cc3)oc12
Activity [7]: Active | fold change (FC) [8]: 2.5 | Activity [9]: Active | Activity [10]: Active | Activity [11]: Active | Activity [12]: Active | fold change (FC) [13]: 2 | Activity [14]: Active | Activity [15]: Active | Activity [2]: Non-Toxic | concentration of maximal effect [3]: 1e-06 µM | Activity [16]: Active
